Measurements published in patent US20250098679A1, “HERBICIDAL PYRIDONE DERIVATIVES” (SYNGENTA CROP PROTECTION AG, priority 2021, published 2025).

What was measured:
Type in all cases: in vivo
Settings in all cases: evaluated after 13 days
Setaria faberi (SETFA) [1] = experiment: Pre-emergence Test, Setaria faberi (SETFA)
[2] = tested on: Echinochloa crus-galli (ECHCG); experiment: Pre-emergence Test, Echinochloa crus-galli (ECHCG)
Zea mays (ZEAMX) [3] = experiment: Pre-emergence Test, Zea mays (ZEAMX)
[4] = tested on: Ipomoea hederacea (IPOHE); experiment: Pre-emergence Test, Ipomoea hederacea (IPOHE)
[5] = tested on: Amaranthus palmeri (AMAPA); experiment: Pre-emergence Test, Amaranthus palmeri (AMAPA)
[6] = tested on: Amaranthus retoflexus (AMARE); experiment: Pre-emergence Test, Amaranthus retoflexus (AMARE)
Setaria faberi (SETFA) [7] = experiment: Post-emergence Test, Setaria faberi (SETFA); parameters: key to percentage damage caused to the plant, SETFA (five-point scale): 5=81-100%, 4=61-80%, 3=41-60%, 2=21-40%, 1=0-20% damage
Method in brief: (§1)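 Scores are percentage plant damage on a 1–5 scale (1=0-20%, 2=21-40%, 3=41-60%, 4=61-80%, 5=81-100%), read 13 days after treatment. Pots received a spray at 1000 g/ha unless otherwise stated, formulated in acetone/water (50:50) containing 0.5% Tween 20.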

[8] = tested on: Echinochloa crus-galli (ECHCG); experiment: Post-emergence Test, Echinochloa crus-galli (ECHCG); parameters: key to percentage damage caused to the plant, ECHCG (five-point scale): 5=81-100%, 4=61-80%, 3=41-60%, 2=21-40%, 1=0-20% damage
Method in brief: as §1

Zea mays (ZEAMX) [9] = experiment: Post-emergence Test, Zea mays (ZEAMX); parameters: key to percentage damage caused to the plant, ZEAMX (five-point scale): 5=81-100%, 4=61-80%, 3=41-60%, 2=21-40%, 1=0-20% damage
Method in brief: as §1

[10] = tested on: Ipomoea hederacea (IPOHE); experiment: Post-emergence Test, Ipomoea hederacea (IPOHE); parameters: key to percentage damage caused to the plant, IPOHE (five-point scale): 5=81-100%, 4=61-80%, 3=41-60%, 2=21-40%, 1=0-20% damage
Method in brief: as §1

[11] = tested on: Amaranthus palmeri (AMAPA); experiment: Post-emergence Test, Amaranthus palmeri (AMAPA); parameters: key: 5=81-100%, 4=61-80%, 3=41-60%, 2=21-40%, 1=0-20% damage
Method in brief: as §1

[12] = tested on: Amaranthus retoflexus (AMARE); experiment: Post-emergence Test, Amaranthus retoflexus (AMARE); parameters: key to percentage damage caused to the plant, AMARE (five-point scale): 5=81-100%, 4=61-80%, 3=41-60%, 2=21-40%, 1=0-20% damage
Method in brief: as §1

SMILES	Pre-emergence Test SETFA, percentage damage caused to the plant (five-point scale) (Setaria faberi (SETFA) [1]; 250 g/Ha (*))	Pre-emergence Test ECHCG, percentage damage caused to the plant (five-point scale) ([2]; 250 g/Ha (*))	Pre-emergence Test ZEAMX, percentage damage caused to the plant (five-point scale) (Zea mays (ZEAMX) [3]; 250 g/Ha (*))	percentage damage caused to the plant, SETFA (five-point scale) (Setaria faberi (SETFA) [7]; 250 g/Ha)	percentage damage caused to the plant, ECHCG (five-point scale) ([8]; 250 g/Ha)	percentage damage caused to the plant, ZEAMX (five-point scale) (Zea mays (ZEAMX) [9]; 250 g/Ha)	percentage damage caused to the plant, AMAPA (five-point scale) ([11]; 250 g/Ha)	percentage damage caused to the plant, AMARE (five-point scale) ([12]; 250 g/Ha)	Pre-emergence Test SETFA, percentage damage caused to the plant (five-point scale) (Setaria faberi (SETFA) [1]; 1000 g/ha)	Pre-emergence Test ECHCG, percentage damage caused to the plant (five-point scale) ([2]; 1000 g/ha)	Pre-emergence Test ZEAMX, percentage damage caused to the plant (five-point scale) (Zea mays (ZEAMX) [3]; 1000 g/ha)	Pre-emergence Test IPOHE, percentage damage caused to the plant (five-point scale) ([4]; 1000 g/ha)	Pre-emergence Test AMAPA, percentage damage caused to the plant (five-point scale) ([5]; 1000 g/ha)	Pre-emergence Test AMARE, percentage damage caused to the plant (five-point scale) ([6]; 1000 g/ha)	percentage damage caused to the plant, SETFA (five-point scale) (Setaria faberi (SETFA) [7]; 1000 g/ha)	percentage damage caused to the plant, ECHCG (five-point scale) ([8]; 1000 g/ha)	percentage damage caused to the plant, ZEAMX (five-point scale) (Zea mays (ZEAMX) [9]; 1000 g/ha)	percentage damage caused to the plant, IPOHE (five-point scale) ([10]; 1000 g/ha)	percentage damage caused to the plant, AMAPA (five-point scale) ([11]; 1000 g/ha)	percentage damage caused to the plant, AMARE (five-point scale) ([12]; 1000 g/ha)	also measured
CCn1c(Cn2ncnc2OC)cc(=O)c(C(=O)O)c1-c1ccc(Cl)c(Cl)c1 [Compound 124, 2-(3,4-dichlorophenyl)-1-ethyl-6-[(5-methoxy-1,2,4-triazol-1-yl)methyl]-4-oxo-pyridine-3-carboxylic acid]	0	0	0	2 (2=21-40%)	4 (4=61-80%)	1 (1=0-20%)	0	1 (1=0-20%)													Pre-emergence Test IPOHE, percentage damage caused to the plant (five-point scale) ([4]; 250 g/Ha (*)): 0; Pre-emergence Test AMAPA, percentage damage caused to the plant (five-point scale) ([5]; 250 g/Ha (*)): 1 (1=0-20%); Pre-emergence Test AMARE, percentage damage caused to the plant (five-point scale) ([6]; 250 g/Ha (*)): 1 (1=0-20%); percentage damage caused to the plant, IPOHE (five-point scale) ([10]; 250 g/Ha): 0
CCn1c(Cn2nc(Cl)cc2C)cc(=O)c(C(=O)O)c1-c1ccc(Cl)c(Cl)c1 [Compound 15, 6-[(3-chloro-5-methyl-pyrazol-1-yl)methyl]-2-(3,4-dichlorophenyl)-1-ethyl-4-oxo-pyridine-3-carboxylic acid]				3 (3=41-60%)	4 (4=61-80%)	2 (2=21-40%)	5 (5=81-100%)	5 (5=81-100%)	4 (4=61-80%)	4 (4=61-80%)	2 (2=21-40%)	3 (3=41-60%)	5 (5=81-100%)	2 (2=21-40%)	4 (4=61-80%)	4 (4=61-80%)	3 (3=41-60%)	5 (5=81-100%)	5 (5=81-100%)	3 (3=41-60%)	percentage damage caused to the plant, IPOHE (five-point scale) ([10]; 250 g/Ha): 3 (3=41-60%)
CCn1c(Cn2nc(C(F)(F)F)cc2C)cc(=O)c(C(=O)O)c1-c1ccc(Cl)c(Cl)c1 [Compound 13a, 2-(3,4-dichlorophenyl)-1-ethyl-6-[[5-methyl-3-(trifluoromethyl)pyrazol-1-yl]methyl]-4-oxo-pyridine-3-carboxylic acid]	2 (2=21-40%)	2 (2=21-40%)	0	3 (3=41-60%)	2 (2=21-40%)	0	0	1 (1=0-20%)	4 (4=61-80%)	3 (3=41-60%)	0	0	0	0	4 (4=61-80%)	4 (4=61-80%)	3 (3=41-60%)	2 (2=21-40%)	2 (2=21-40%)	0	Pre-emergence Test IPOHE, percentage damage caused to the plant (five-point scale) ([4]; 250 g/Ha (*)): 0; Pre-emergence Test AMAPA, percentage damage caused to the plant (five-point scale) ([5]; 250 g/Ha (*)): 1 (1=0-20%); Pre-emergence Test AMARE, percentage damage caused to the plant (five-point scale) ([6]; 250 g/Ha (*)): 0; percentage damage caused to the plant, IPOHE (five-point scale) ([10]; 250 g/Ha): 3 (3=41-60%)
CCn1c(Cn2cc(C(F)(F)F)nc2C)cc(=O)c(C(=O)O)c1-c1ccc(Cl)c(Cl)c1 [Compound 103, 2-(3,4-dichlorophenyl)-1-ethyl-6-[[2-methyl-4-(trifluoromethyl)imidazol-1-yl]methyl]-4-oxo-pyridine-3-carboxylic acid]									1 (1=0-20%)	1 (1=0-20%)	0	0	2 (2=21-40%)	1 (1=0-20%)	1 (1=0-20%)	1 (1=0-20%)	1 (1=0-20%)	0	1 (1=0-20%)	1 (1=0-20%)	
CCn1c(Cn2nc(Cl)cc2Cl)cc(=O)c(C(=O)O)c1-c1ccc(Cl)c(Cl)c1 [Compound 134, 2-(3,4-dichlorophenyl)-6-[(3,5-dichloropyrazol-1-yl)methyl]-1-ethyl-4-oxo-pyridine-3-carboxylic acid]	5 (5=81-100%)	4 (4=61-80%)	0	4 (4=61-80%)	3 (3=41-60%)	2 (2=21-40%)	1 (1=0-20%)	2 (2=21-40%)	5 (5=81-100%)	5 (5=81-100%)	4 (4=61-80%)	4 (4=61-80%)	4 (4=61-80%)	2 (2=21-40%)	4 (4=61-80%)	4 (4=61-80%)	3 (3=41-60%)	3 (3=41-60%)	4 (4=61-80%)	4 (4=61-80%)	Pre-emergence Test IPOHE, percentage damage caused to the plant (five-point scale) ([4]; 250 g/Ha (*)): 1 (1=0-20%); Pre-emergence Test AMAPA, percentage damage caused to the plant (five-point scale) ([5]; 250 g/Ha (*)): 2 (2=21-40%); Pre-emergence Test AMARE, percentage damage caused to the plant (five-point scale) ([6]; 250 g/Ha (*)): 1 (1=0-20%); percentage damage caused to the plant, IPOHE (five-point scale) ([10]; 250 g/Ha): 4 (4=61-80%)
CCn1c(Cn2ccc(Cl)n2)cc(=O)c(C(=O)O)c1-c1ccc(Cl)c(Cl)c1 [Compound 4, 6-[(3-chloropyrazol-1-yl)methyl]-2-(3,4-dichlorophenyl)-1-ethyl-4-oxo-pyridine-3-carboxylic acid]	5 (5=81-100%)	5 (5=81-100%)	1 (1=0-20%)	4 (4=61-80%)	4 (4=61-80%)	2 (2=21-40%)	3 (3=41-60%)	3 (3=41-60%)	5 (5=81-100%)	5 (5=81-100%)	3 (3=41-60%)	3 (3=41-60%)	1 (1=0-20%)	2 (2=21-40%)	4 (4=61-80%)	4 (4=61-80%)	3 (3=41-60%)	4 (4=61-80%)	4 (4=61-80%)	2 (2=21-40%)	Pre-emergence Test IPOHE, percentage damage caused to the plant (five-point scale) ([4]; 250 g/Ha (*)): 2 (2=21-40%); Pre-emergence Test AMAPA, percentage damage caused to the plant (five-point scale) ([5]; 250 g/Ha (*)): 0; Pre-emergence Test AMARE, percentage damage caused to the plant (five-point scale) ([6]; 250 g/Ha (*)): 0
